Results: US20020028945A1, “Heterocyclo substituted hydroxamic acid derivatives as cyclooxygenase-2 and 5-lipoxygenase inhibitors” (priority 1996, published 2002)

Key:
COX-1 = COX-1 (UniProt P23219); assay: COX-1 activity in vitro (PGE2 ELISA, recombinant enzyme); format: biochemical, human or murine; details: recombinant COX-1, arachidonic acid 10 μM
Experimental: Evaluation of COX-1 and COX-2 activity in vitro a. Preparation of recombinant COX baculoviruses
(§1) Recombinant COX-1 and COX-2 were prepared as described by Gierse et al, [J. Biochem., 305, 479-84 (1995)]. A 2.0 kb fragment containing the coding region of either human or murine COX-1 or human or murine COX-2 was cloned into a BamH1 site of the baculovirus tra nsfer vector pVL1393 (Invitrogen) to generate the baculovirus transfer vectors for COX-1 and coX-2 in a manner similar to the method of D. R. O'Reilly et al (Baculovirus Expression Vectors: A Laboratory Manual (1992)). Recombinant baculoviruses were isolated by transfecting 4 μg of baculovirus transfer vector DNA into SF9 insect cells (2×10^8) along with 200 ng of linearized baculovirus plasmid DNA by the calcium phosphate method. See M. D. Summers and G. E. Smith, A Manual of Methods for Baculovirus Vectors and Insect Cell Culture Procedures, Texas Agric. Exp. Station Bull. 1555 (1987). Recombinant viruses were purified by three rounds of plaque purification and high titer (10^7-10^8 pfu/ml) stocks of virus were prepared. For large scale production, SF9 insect cells were infected in 10 liter fermentors (0.5×10^6/ml) with the recombinant baculovirus stock such that the multiplicity of infection was 0.1. After 72 hours the cells were centrifuged and the cell pellet homogenized in Tris/Sucrose (50 mM: 25%, pH 8.0) containing 1% 3-[(3-cholamidopropyl)dimethylammonio]-1-propanesulfonate (CHAPS). The homogenate was centrifuged at 10,000×G for 30 minutes, and the resultant supernatant was stored at −80° C. before being assayed for COX activity. […]
(§2) b. Assay for COX-1 and COX-2 activitv
COX activity was assayed as PGE2 formed/μg protein/time using an ELISA to detect the prostaglandin released. CHAPS-solubilized insect cell membranes containing the appropriate COX enzyme were incubated in a potassium phosphate buffer (50 mM, pH 8.0) containing epinephrine, phenol, and heme with the addition of arachidonic acid (10 μM). […] The PGE2 formed was measured by standard ELISA technology (Cayman Chemical).

COX-2 = biological target: T1, COX-2 (UniProt P35354); assay: COX-2 activity in vitro (PGE2 ELISA, recombinant enzyme); format: biochemical, human or murine; details: recombinant COX-2, arachidonic acid 10 μM
T1 sequence (P35354 1-604): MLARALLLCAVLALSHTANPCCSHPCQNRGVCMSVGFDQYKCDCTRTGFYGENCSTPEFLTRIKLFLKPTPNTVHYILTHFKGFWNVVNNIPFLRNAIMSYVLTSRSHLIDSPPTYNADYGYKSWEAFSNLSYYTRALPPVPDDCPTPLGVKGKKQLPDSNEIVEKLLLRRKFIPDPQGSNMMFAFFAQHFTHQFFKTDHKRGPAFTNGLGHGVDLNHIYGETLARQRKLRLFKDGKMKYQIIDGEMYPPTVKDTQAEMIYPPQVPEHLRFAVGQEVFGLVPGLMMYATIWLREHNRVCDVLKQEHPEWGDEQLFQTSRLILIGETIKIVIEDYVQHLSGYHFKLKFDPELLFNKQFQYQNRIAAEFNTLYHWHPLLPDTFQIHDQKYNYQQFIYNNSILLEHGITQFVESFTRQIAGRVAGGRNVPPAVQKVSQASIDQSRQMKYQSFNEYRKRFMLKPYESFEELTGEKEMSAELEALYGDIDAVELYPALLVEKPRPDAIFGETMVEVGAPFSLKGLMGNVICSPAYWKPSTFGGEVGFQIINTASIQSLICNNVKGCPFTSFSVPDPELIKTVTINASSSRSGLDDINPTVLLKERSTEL
Experimental: Evaluation of COX-1 and COX-2 activity in vitro
The COX-2 inhibition activity of the compounds of this invention illustrated in the Examples was determined by the following methods. a. Preparation of recombinant COX baculoviruses
as §1, §2
COX activity was assayed as PGE2 formed/μg protein/time using an ELISA to detect the prostaglandin released. […] The PGE2 formed was measured by standard ELISA technology (Cayman Chemical).

5-lipoxygenase (5-LO) = biological target: T2, 5-lipoxygenase (5-LO) (Homo sapiens, UniProt P09917); assay: 5-Lipoxygenase activity: calcium ionophore-induced LTB4 production in human whole blood; format: cell-based; details: A-23187 20 μg/ml, LTB4 by ELISA, mean IC50
T2 construct: Leukotriene B4 (LTB4) production in human whole blood; from tissue; host or cells: human whole blood (healthy donors, heparinized)
T2 sequence (P09917 1-674): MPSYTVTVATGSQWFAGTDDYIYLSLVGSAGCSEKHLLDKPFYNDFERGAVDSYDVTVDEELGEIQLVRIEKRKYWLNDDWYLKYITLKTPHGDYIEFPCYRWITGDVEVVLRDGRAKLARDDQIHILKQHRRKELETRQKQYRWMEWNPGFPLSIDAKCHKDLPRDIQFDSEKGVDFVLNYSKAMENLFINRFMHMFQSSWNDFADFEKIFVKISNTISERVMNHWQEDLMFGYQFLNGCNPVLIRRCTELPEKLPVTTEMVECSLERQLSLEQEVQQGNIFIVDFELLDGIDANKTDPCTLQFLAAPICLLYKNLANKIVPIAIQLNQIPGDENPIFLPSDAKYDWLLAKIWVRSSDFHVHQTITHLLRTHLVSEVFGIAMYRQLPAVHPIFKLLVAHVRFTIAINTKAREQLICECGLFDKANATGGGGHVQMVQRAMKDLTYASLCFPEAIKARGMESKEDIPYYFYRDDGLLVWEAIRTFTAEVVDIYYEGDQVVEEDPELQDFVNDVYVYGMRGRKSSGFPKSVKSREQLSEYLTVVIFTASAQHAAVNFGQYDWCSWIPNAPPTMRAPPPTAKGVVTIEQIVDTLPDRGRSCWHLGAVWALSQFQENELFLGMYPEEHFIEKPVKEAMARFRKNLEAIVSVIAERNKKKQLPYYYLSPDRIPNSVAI
Experimental: Assay for 5-Lipoxygenase activity
The 5-lipoxygenase (5-LO) activity of the compounds were determined by the calcium ionophore-induced Leukotriene B4 (LTB4) production in human whole blood. Venous blood was collected from healthy human donors using heparin as an anti-coagulant. Human blood samples (0.2 ml of a 1:4 dilution in RPMI 1640 medium) were incubated in 96-well culture plates for 15 minutes at 37° C. with test compounds dissolved in ethanol (EtOH; final concentration <1%), or vehicle. Typically 7 concentrations of test compounds were examined in duplicate. A-23187 [Sigma] was added to the blood to a final concentration of 20 μg/ml, and the mixtures were incubated for 10 minutes at 37° C. The reaction was stopped by placing the samples on ice. The samples were then centrifuged at 800×g at 4° C. for 10 minutes to pellet the cells, and the supernatants were recovered for quantitation of LTB4 by ELISA (Cayman Chemical Co.; sensitivity 3 pg/ml). IC50's were estimated from a four parameter logistic model with two parameters fixed, the minimum (0% inhibition) and maximum (100% inhibition). The IC50 value is the concentration that produces 50% inhibition between the fixed values of the minimum and maximum. Data is reported as the mean IC50 for each compound.

carrageenan foot edema = assay: Rat carrageenan foot pad edema test; format: in vivo; details: male Sprague-Dawley rats, oral, 3 h after carrageenan
Experimental: Rat Carrageenan Foot Pad Edema Test
The carrageenan foot edema test was performed with materials, reagents and procedures essentially as described by Winter, et al., (Proc. Soc. Exp. Biol. Med., 111, 544 (1962)). Male Sprague-Dawley rats were selected in each group so that the average body weight was as close as possible. Rats were fasted with free access to water for over sixteen hours prior to the test. The rats were dosed orally (1 mL) with compounds suspended in vehicle containing 0.5% methylcellulose and 0.025% surfactant, or with vehicle alone. One hour later a subplantar injection of 0.1 mL of 1% solution of carrageenan/sterile 0.9% saline was administered and the volume of the injected foot was measured with a displacement plethysmometer connected to a pressure transducer with a digital indicator. Three hours after the injection of the carrageenan, the volume of the foot was again measured. The average foot swelling in a group of drug-treated animals was compared with that of a group of placebo-treated animals and the percentage inhibition of edema was determined (Otterness and Bliven, Laboratory Models for Testing NSAIDs, in Non-steroidal Anti-Inflammatory Drugs, (J. Lombardino, ed. 1985)).

melting point | IC50 (COX-1) | IC50 (COX-2) | IC50 (5-lipoxygenase (5-LO)) | SMILES | RAT PAW EDEMA % Inhibition @ 10 mg/kg body weight (carrageenan foot edema)
110 to 135 °C (dec.) |  |  |  | CN(O)C(=O)Cc1cc(-c2ccc(Cl)cc2)n(-c2ccc(S(N)(=O)=O)cc2)n1 [Example 3, [1-[4-(Aminosulfonyl)phenyl]-5-(4-chlorophenyl)-1H-pyrazol-3-yl]-N-hydroxy-N-methyl-ethanamide] | 
165 to 169.7 °C | 12.5 µM | 0.3 µM |  | NS(=O)(=O)c1ccc(-c2nc(CCCC(=O)NO)oc2-c2ccc(Cl)c(Cl)c2)cc1 [Example 4, 4-[(4-Aminosulfonyl)phenyl]-5-(3,4-dichlorophenyl)-N-hydroxy-2-oxazole-butanamide] | 
 | 53.5 µM | 6.6 µM | 12.3 µM | NC(=O)N(O)Cc1cc(-c2ccc(Cl)cc2)n(-c2ccc(S(N)(=O)=O)cc2)n1 [Example 1, N′-[[1-[4-(Aminosulfonyl)phenyl]-5-(4-chlorophenyl)-1H-pyrazol-3-yl]methyl]-N′-hydroxyurea] | 
 | > 100 µM | 5.1 µM | 0.05 µM | CN(O)C(=O)CCc1nc(-c2ccc(F)cc2)c(-c2ccc(S(C)(=O)=O)cc2)o1 [Example 2, 4-(4-Fluorophenyl)-N-hydroxy-N-methyl-5-[(4-methylsulfonyl)phenyl]-2-oxazolepropanamide] | 2%
